Results taken from patent US6667387B1, “HCV core peptides” (priority 1992, dated 2003).
Ends that are not written are not given here.

Key:
[1] = system: antibodies in sera from HCV-seropositive donors; assay: ELISA with HCV antibody-positive sera (biotinylated peptides on streptavidin- or avidin-coated plates, unbiotinylated peptides coated directly); format: binding, human; conditions: for optical density (450 nm): 20-fold dilution; for PEPTIDE ELISA (O.D.): Table 12, biotinylated 20-mers
Protocol: (§1) Where peptides were to be coated directly, stock solutions of the peptides were diluted in sodium carbonate buffer, pH 9.6 and used to coat polystyrene microtiter plates at a peptide concentration of 2 to 5 micrograms per milliliter for 1 hour at 37° C.
(§2) In cases where biotinylated peptides were to be evaluated, plates were first coated with streptavidin in sodium carbonate buffer, pH 9.6 at a concentration of 3 micrograms per milliliter for 1 hour at 37° C. The plates were then washed to remove excess, unbound protein. A working solution of the biotinylated peptide at 1 microgram per milliliter in sodium carbonate buffer was then added to the wells of the microtiter plate and incubated for 1 hours at 37° C.
(§3) Once the plates had been coated with antigen, any remaining free binding sites on the plastic were blocked with casein. After washing, a dilution of the appropriate antisera, usually 1:100, was added to the wells of the plates and incubated for 1 hour at 37° C.
(§4) After washing to remove unbound material, specific antibody binding was detected by incubating the plates with goat anti-human immunoglobulin antibodies conjugated to the enzyme horseradish peroxidase. Following removal of unbound conjugate by washing, a solution containing H2O2 and 3,3′,5,5′-tetramethylbenzidine was added.
(§5) Reactions were stopped after a suitable interval by addition of sulfuric acid. […] Absorbance measurements were made at a wavelength of 450 nanometers and all data are expressed as an optical density value at this wavelength.
The unbiotinylated peptides were adsorbed onto the wells of polystyrene microtiter plates at a concentration of 3 micrograms per milliliter.
The biotinylated peptides were bound at a concentration of 1 microgram per milliliter to streptavidin-coated microtiter plates. Sera known to contain antibodies to these peptides were used for the evaluation and were tested at a 20-fold dilution.
To investigate further the enhanced antibody recognition of biotinylated HCV peptides bound to streptavidin or avidin as compared to direct adsorption on plastic, the influence of peptide coating concentration was investigated. Three peptides (HCV peptides II, XI, and XVI) were coated in concentrations ranging from 10 nanograms per milliliter to 3 micrograms per milliliter in a volume of 200 microliters per microtiter plate well. For direct coating, the unbiotinylated versions of these peptides were used. The biotinylated versions of these peptides were used to coat wells to which streptavidin had previously been adsorbed. Sera known to contain antibodies to these peptides were used at a dilution of 1 to 100 to evaluate the magnitude of antibody binding.
(§6) Unbiotinylated HCV peptide I was coated directly onto the wells of a polystyrene ELISA plate at a concentration of 3 micrograms per milliliter in sodium carbonate buffer, pH 9.6. Biotinylated HCV peptide I was bound to streptavidin-coated wells using a stock solution containing the peptide at a concentration of 1 microgram per milliliter. The resulting plates were then incubated in parallel with a panel of sera from HCV-seropositive donors. […] Two of the sera (8326 and 8244) recognize the biotinylated version of this peptide far better than the unbiotinylated version. The specificity of the antibody reaction is also reflected by the low optical density values obtained for 5 serum samples from uninfected donors (F88, F89, F76, F136, and F6).
To determine how well biotinylated peptides would function in a mixture when bound to streptavidin- or avidin-coated plates, two mixtures were made of the N-terminally biotinylated versions of the HIV-1 peptides TM-HIV-1 (hereabove referred to as 1a.1) and V3-nm (hereabove referred to as 1b.4), the HIV-2 peptide TM-HIV-2 (hereabove referred to as 2a), and the hepatitis C virus peptides II, IX, and XVIII. […]

[2] = ELISA with seronegative / negative control sera (specificity); format: binding, human; conditions: negative serum
Protocol: as §1, §2, §3, §4, §5, §6
To determine how well biotinylated peptides would function in a mixture when bound to streptavidin- or avidin-coated plates, two mixtures were made of the N-terminally biotinylated versions of the HIV-1 peptides TM-HIV-1 (hereabove referred to as 1a.1) and V3-nm (hereabove referred to as 1b.4), the HIV-2 peptide TM-HIV-2 (hereabove referred to as 2a), and the hepatitis C virus peptides II, IX, and XVIII. Mixture A contained each of the six biotinylated peptides at a concentration of 1 microgram per milliliter (6 micrograms per milliliter peptide, total) while in mixture B, each peptide was present at a concentration of 0.1 microgram per milliliter (0.6 microgram per milliliter peptide, total). The individual peptides were coated at a concentration of 1 microgram per milliliter. For purposes of comparison, mixtures A and B were also coated directly onto the wells of a microtiter plate. Samples from HIV-1, HIV-2, and HCV-seropositive donors were tested and compared to sera from seronegative blood donors. A cut-off absorbance value of 0.250 was used to determine whether a reaction was positive or negative. Absorbance values equal or greater than 0.250 were considered positive while absorbance values below this value were considered negative.

Substance: SQHLPYIEQGMMLAEQFKQK
- optical density (450 nm) ([1]; Table 4A, serum 2): 1.971
- optical density (450 nm) ([1]; Table 4A, serum 3): 2.086
- optical density (450 nm) ([1]; Table 4A, serum 4): 1.976
- optical density (450 nm) ([1]; Table 4A, serum 6): 0.518
- optical density (450 nm) ([1]; Table 4A, serum 8): 2.624
- optical density (450 nm) ([1]; Table 4A, serum 10): 2.321
- optical density (450 nm) ([1]; Table 4A, serum 11): 2.378
- optical density (450 nm) ([1]; Table 4A, serum 23): 2.503
- optical density (450 nm) ([1]; Table 4A, serum 31): 2.104
- optical density (450 nm) ([1]; Table 4A, serum 33): 1.857
- optical density (450 nm) ([1]; Table 4A, serum 49): 2.180
- optical density (450 nm) ([1]; Table 4A, serum 77): 0.159
- PEPTIDE ELISA (O.D.) ([1]; serum 0843): 2.268
- PEPTIDE ELISA (O.D.) ([1]; serum 8240): 0.182
- PEPTIDE ELISA (O.D.) ([1]; serum 8241): 2.280
- PEPTIDE ELISA (O.D.) ([1]; serum 8242): 1.625
- PEPTIDE ELISA (O.D.) ([1]; serum 8332): 0.575
- PEPTIDE ELISA (O.D.) ([1]; serum 8339): 0.043
- PEPTIDE ELISA (O.D.) ([1]; serum 8350): 0.623
- PEPTIDE ELISA (O.D.) ([1]; serum 8377): 2.227
- PEPTIDE ELISA (O.D.) ([1]; serum 8378): 1.449
- PEPTIDE ELISA (O.D.) ([1]; serum 8388): 1.018
- antibody binding to the 20-mers ([1]; serum 8241): very strong
- optical density (450 nm) ([2]; Table 4A): 0.095

Substance: Leu-Arg-Lys-Ser-Arg-Arg-Phe-Ala-Gln-Ala-Leu-Pro-Val-Trp-Ala-Arg-Pro-Asp-Tyr-Asn [Peptide XVI] (LRKSRRFAQALPVWARPDYN; printed: Leu-Arg-Lys-Ser-Arg-Arg-Phe-Ala-Gln-Ala-Leu-Pro-Val-Trp-Ala-Arg-Pro-Asp-Tyr-Asn)
- optical density (450 nm) ([1]; Table 4B, serum 1): 2.435
- optical density (450 nm) ([1]; Table 4B, serum 2): 1.239
- optical density (450 nm) ([1]; Table 4B, serum 6): 1.595
- optical density (450 nm) ([1]; Table 4B, serum 8): 1.599
- optical density (450 nm) ([1]; Table 4B, serum 10): 2.847
- optical density (450 nm) ([1]; Table 4B, serum 26): 1.522
- optical density (450 nm) ([1]; Table 4B, serum 83): 2.221
- optical density (450 nm) ([1]; Table 4B, serum 88): 2.519
- optical density (450 nm) ([1]; Table 4B, serum 89): 1.530
- optical density (450 nm) ([1]; Table 4B, serum 91): 2.169
- optical density (450 nm) ([1]; Table 4B, serum 95): 1.484
- optical density (450 nm) ([1]; Table 4B, serum 99): 2.045
- optical density (450 nm) ([1]; Table 4B, serum 100): 1.637
- optical density (450 nm) ([1]; Table 4B, serum 104): 0.942
- optical density (450 nm) ([1]; Table 4B, serum 105): 2.186
- optical density (450 nm) ([1]; Table 4B, serum 110): 1.484
- optical density (450 nm) ([1]; Table 4B, serum 111): 1.465
- optical density (450 nm) ([1]; Table 4B, serum 112): 1.084
- optical density (450 nm) ([1]; Table 4B, serum 113): 2.535
- optical density (450 nm) ([1]; Table 4B, serum 116): 1.918
- optical density (450 nm) ([1]; Table 4B, serum 120): 2.332
- optical density (450 nm) ([1]; Table 4B, serum 266): 2.262
- optical density (450 nm) ([1]; Table 4B, serum 8247): 0.618
- optical density (450 nm) ([1]; Table 4B, serum 11476): 2.197
- optical density (450 nm) ([1]; Table 4B, serum 24758): 0.062
- PEPTIDE ELISA (O.D.) ([1]; serum 0843): 1.444
- PEPTIDE ELISA (O.D.) ([1]; serum 8240): 0.388
- PEPTIDE ELISA (O.D.) ([1]; serum 8241): 2.456
- PEPTIDE ELISA (O.D.) ([1]; serum 8242): 2.318
- PEPTIDE ELISA (O.D.) ([1]; serum 8332): 2.130
- PEPTIDE ELISA (O.D.) ([1]; serum 8339): 2.859
- PEPTIDE ELISA (O.D.) ([1]; serum 8350): 2.249
- PEPTIDE ELISA (O.D.) ([1]; serum 8377): 2.336
- PEPTIDE ELISA (O.D.) ([1]; serum 8378): 1.602
- PEPTIDE ELISA (O.D.) ([1]; serum 8388): 0.390
- optical density (450 nm) ([2]; Table 4B): 0.067

Substance: HCV-7: biotinylated 20-mer, HCV NS4 aa 1724-1743, SEQ ID NO:55
- PEPTIDE ELISA (O.D.) ([1]; serum 0843): 2.251
- PEPTIDE ELISA (O.D.) ([1]; serum 8240): 1.963
- PEPTIDE ELISA (O.D.) ([1]; serum 8241): 0.968
- PEPTIDE ELISA (O.D.) ([1]; serum 8242): 1.252
- PEPTIDE ELISA (O.D.) ([1]; serum 8332): 0.945
- PEPTIDE ELISA (O.D.) ([1]; serum 8339): 0.041
- PEPTIDE ELISA (O.D.) ([1]; serum 8350): 0.598
- PEPTIDE ELISA (O.D.) ([1]; serum 8377): 1.829
- PEPTIDE ELISA (O.D.) ([1]; serum 8378): 2.006
- PEPTIDE ELISA (O.D.) ([1]; serum 8388): 2.504
- antibody binding to the 20-mers ([1]; serum 8241): Moderate binding

Substance: Ser-Gln-His-Leu-Pro-Tyr-Ile-Glu-Gln-Gly-Met-Met-Leu-Ala-Glu-Gln-Phe-Lys-Gln-Lys [Biotinylated peptide XI] (SQHLPYIEQGMMLAEQFKQK; also: biotinylated) [probably the unbiotinylated peptide XI, acetylated at the amino terminus, coated directly]
- optical density (450 nm) ([1]; Table 4A, serum 2): 0.090
- optical density (450 nm) ([1]; Table 4A, serum 3): 0.443
- optical density (450 nm) ([1]; Table 4A, serum 4): 0.473
- optical density (450 nm) ([1]; Table 4A, serum 6): 0.053
- optical density (450 nm) ([1]; Table 4A, serum 8): 1.275
- optical density (450 nm) ([1]; Table 4A, serum 10): 0.764
- optical density (450 nm) ([1]; Table 4A, serum 11): 0.569
- optical density (450 nm) ([1]; Table 4A, serum 23): 0.775
- optical density (450 nm) ([1]; Table 4A, serum 31): 0.497
- optical density (450 nm) ([1]; Table 4A, serum 33): 0.832
- optical density (450 nm) ([1]; Table 4A, serum 49): 0.515
- optical density (450 nm) ([1]; Table 4A, serum 77): 0.093
- optical density (450 nm) ([2]; Table 4A): 0.053

Substance: Core-7: biotinylated 20-mer, HCV core aa 37-56, SEQ ID NO:41
- PEPTIDE ELISA (O.D.) ([1]; serum 0843): 1.251
- PEPTIDE ELISA (O.D.) ([1]; serum 8240): 1.529
- PEPTIDE ELISA (O.D.) ([1]; serum 8241): 0.448
- PEPTIDE ELISA (O.D.) ([1]; serum 8242): 0.632
- PEPTIDE ELISA (O.D.) ([1]; serum 8332): 1.387
- PEPTIDE ELISA (O.D.) ([1]; serum 8339): 0.166
- PEPTIDE ELISA (O.D.) ([1]; serum 8350): 0.357
- PEPTIDE ELISA (O.D.) ([1]; serum 8377): 0.221
- PEPTIDE ELISA (O.D.) ([1]; serum 8378): 1.089
- PEPTIDE ELISA (O.D.) ([1]; serum 8388): 0.970

Substance: NS5-25: biotinylated 20-mer, HCV NS5 aa 2263-2282, SEQ ID NO:59
- PEPTIDE ELISA (O.D.) ([1]; serum 0843): 0.062
- PEPTIDE ELISA (O.D.) ([1]; serum 8240): 0.054
- PEPTIDE ELISA (O.D.) ([1]; serum 8241): 0.050
- PEPTIDE ELISA (O.D.) ([1]; serum 8242): 0.260
- PEPTIDE ELISA (O.D.) ([1]; serum 8332): 0.047
- PEPTIDE ELISA (O.D.) ([1]; serum 8339): 1.495
- PEPTIDE ELISA (O.D.) ([1]; serum 8350): 0.069
- PEPTIDE ELISA (O.D.) ([1]; serum 8377): 1.092
- PEPTIDE ELISA (O.D.) ([1]; serum 8378): 0.279
- PEPTIDE ELISA (O.D.) ([1]; serum 8388): 0.055
